Assay results reported in US10287269B2, “Pyrazolyl pyrimidinone compounds as PDE2 inhibitors” (Merck Sharp & Dohme Corp., priority 2015, dated 2019).
Like-named read-outs stand apart in the source and are kept apart here. One block for each compound: values may come before it.

Biological target: T1, Rhesus PDE2A3 (Macaca mulatta, UniProt B3VTJ2)
T1 construct: made in house; host or cells: AD293 cells, transient transfection, pcDNA3.3-TOPO; lysate supernatant used as enzyme
T1 sequence (B3VTJ2 1-941): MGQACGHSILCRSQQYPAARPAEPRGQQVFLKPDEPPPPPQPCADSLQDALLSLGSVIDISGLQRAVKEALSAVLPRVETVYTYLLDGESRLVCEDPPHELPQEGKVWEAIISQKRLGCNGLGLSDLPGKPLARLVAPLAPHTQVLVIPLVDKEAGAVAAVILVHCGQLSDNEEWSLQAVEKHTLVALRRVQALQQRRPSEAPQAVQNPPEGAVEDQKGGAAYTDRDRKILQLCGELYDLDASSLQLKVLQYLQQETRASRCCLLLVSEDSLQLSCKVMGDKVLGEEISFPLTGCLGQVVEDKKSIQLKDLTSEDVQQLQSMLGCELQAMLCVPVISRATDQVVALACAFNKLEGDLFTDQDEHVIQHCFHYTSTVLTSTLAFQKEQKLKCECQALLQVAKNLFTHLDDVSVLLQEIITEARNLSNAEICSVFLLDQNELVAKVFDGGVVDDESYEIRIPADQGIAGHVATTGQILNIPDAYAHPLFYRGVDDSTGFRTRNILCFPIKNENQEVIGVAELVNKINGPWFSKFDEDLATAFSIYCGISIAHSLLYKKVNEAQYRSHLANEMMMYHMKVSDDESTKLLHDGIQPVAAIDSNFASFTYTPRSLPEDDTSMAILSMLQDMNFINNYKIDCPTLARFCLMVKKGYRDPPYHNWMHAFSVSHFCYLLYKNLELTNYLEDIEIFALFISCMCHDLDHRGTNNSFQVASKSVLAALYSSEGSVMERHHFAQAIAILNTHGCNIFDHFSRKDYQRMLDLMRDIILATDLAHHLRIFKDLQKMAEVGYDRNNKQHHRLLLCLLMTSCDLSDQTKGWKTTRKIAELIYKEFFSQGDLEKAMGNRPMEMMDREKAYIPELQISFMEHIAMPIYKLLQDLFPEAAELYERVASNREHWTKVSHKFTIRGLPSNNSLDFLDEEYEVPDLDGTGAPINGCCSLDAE
Test: PDE2 fluorescence polarization (IMAP FP) inhibition assay, rhesus enzyme
Format: biochemical, rhesus macaque
Experimental: The activity of the compounds in accordance with the present invention as PDE2 inhibitors may be readily determined using a fluorescence polarization (FP) methodology (Huang, W., et al., J. Biomol Screen, 2002, 7: 215).
In a typical experiment the PDE2 inhibitory activity of the compounds of the present invention was determined in accordance with the following experimental method. Rhesus PDE2A3 was amplified from rhesus macaque brain cDNA (Biochain Institute, Hayward, Calif.) using primers based on human PDE2A sequence (accession NM_002599.3) where the forward primer containing a Kozak consensus was 5′-[…]-3′ and the reverse primer was 5′-[…]-3′. Amplification with Easy-A High-Fidelity PCR cloning enzyme (Stratagene, La Jolla, Calif.) was 95° C. for 2 minutes followed by thirty three cycles of 95° C. for 40 seconds, 52° C. for 30 seconds, and 72° C. for 2 minutes 48 seconds. Final extension was 72° C. for 7 minutes. The PCR product was TA cloned into pcDNA3.3-TOPO (Invitrogen, Carlsbad, Calif.) according to standard protocol. A consensus sequence was developed from multiple clones and then deposited into GenBank (EU812167). AD293 cells (Stratagene, La Jolla, Calif.) with 70-80% confluency were transiently transfected with rhesus PDE2A3/pcDNA3.3-TOPO using Lipofectamine 2000 according to manufacturer specifications (Invitrogen, Carlsbad, Calif.). Cells were harvested 48 hours post-transfection and lysed by sonication (setting 3, 10×5 sec pulses) in a buffer containing 20 mM HEPES pH 7.4, 1 mM EDTA and Complete Protease Inhibitor Cocktail Tablets (Roche, Indianapolis, Ind.). Lysate was collected by centrifugation at 75,000×g for 20 minutes at 4° C. and supernatant utilized for evaluation of PDE2 activity. The fluorescence polarization assay for cyclic nucleotide phosphodiesterases was performed using an IMAP® FP kit supplied by Molecular Devices, Sunnyvale, Calif. (product # R8139). […] Assays were performed at room temperature in 384-well microtiter plates with an incubation volume of 20.2 μL. Solutions of test compounds were prepared in DMSO and serially diluted with DMSO to yield 8 μL of each of 10 solutions differing by 3-fold in concentration, at 32 serial dilutions per plate. […] 0% of inhibition is determined by using DMSO (1% final concentrations).
A Labcyte Echo 555 (Labcyte, Sunnyvale, Calif.) is used to dispense 200 nL from each well of the titration plate to the 384 well assay plate. Ten microliters of a solution of enzyme (1/2000 final dilution from aliquots; sufficient to produce 20% substrate conversion) was added to the assay plate. Next 10 uL of a separate solution of the substrate FAM-labeled cAMP (50 nM final concentration product # R7506 from Molecular Devices) and the activator cGMP (1 uM final concentration), prepared in the assay buffer (10 mM Tris HCl, pH 7.2, 10 mM MgCl2, 0.05% NaN3 0.01% Tween-20, and 1 mM DTT) was added to the assay plate and shaken to mix. The reaction is allowed to proceed at room temperature for 60 minutes. A binding solution is then made from the kit components, comprised of 80% Solution A, 20% Solution B and binding reagent at a volume of 1/600 the total binding solution. The enzymatic reaction is stopped by addition of 60 μl, of the binding solution to each well of the assay plates and the plates are sealed and shaken for 30 seconds. The plate was incubated at room temperature for at least one hour prior to determining the fluorescence polarization (FP). The parallel and perpendicular fluorescence of each well of the plate was measured using a Tecan Genios Pro plate reader (Tecan, Switzerland) or Perkin Elmer EnVision™ plate reader (Waltham, Mass.). Fluorescence polarization (mP) was calculated from the parallel (S) and perpendicular (P) fluorescence of each sample well and the analogous values for the median control well, containing only substrate (So and Po), using the following equation: Polarization (mP)=1000*(S/So−P/Po)/(S/So+P/Po).

[1] = Lab A, read-out: Rhesus PDE2 Ki (nM) Lab A
[2] = Lab B, read-out: Rhesus PDE2 Ki (nM) Lab B

Ki [1]: 218 nM
Compound: Cc1ccc(C(C)n2cc(-c3cc(=O)[nH]c(C)n3)cn2)c(F)c1 (single isomer, unassigned) [Example 151, (S)- or (R)-6-(1-(1-(2-fluoro-4-methylphenyl)ethyl)-1H-pyrazol-4-yl)-2-methylpyrimidin-4(3H)-one]

Ki [1]: 179 nM
Compound: Cc1nc(-c2cnn(C(C)c3ccc(C(F)(F)F)cc3Cl)c2)cc(=O)[nH]1 (single isomer, unassigned) [Example 84, (S)- or (R)-6-(1-(1-(2-chloro-4-(trifluoromethyl)phenyl)ethyl)-1H-pyrazol-4-yl)-2-methylpyrimidin-4(3H)-one]

Ki [1]: 162 nM
Compound: Cc1nc(-c2cnn(C(C)c3ccc(OC(F)F)cc3F)c2)cc(=O)[nH]1 (single isomer, unassigned) [Example 88, (S)- or (R)-6-(1-(1-(4-(difluoromethoxy)-2-fluorophenyl)ethyl)-1H-pyrazol-4-yl)-2-methylpyrimidin-4(3H)-one]

Ki [2]: 256 nM
Compound: Cc1nc(-c2cnn(C(C)c3ccc(OC(F)(F)F)cc3F)c2)cc(=O)[nH]1 (single isomer, unassigned) [Example 58, (R)- or (S)-6-(1-(1-(2-fluoro-4-(trifluoromethoxy)phenyl)ethyl)-1H-pyrazol-4-yl)-2-methylpyrimidin-4(3H)-one]

Ki [1]: 212 nM
Compound: CCc1ccc(C(C)n2cc(-c3cc(=O)[nH]c(C)n3)cn2)c(F)c1 (single isomer, unassigned) [Example 102, (S)- or (R)-6-(1-(1-(4-ethyl-2-fluorophenyl)ethyl)-1H-pyrazol-4-yl)-2-methylpyrimidin-4(3H)-one]

Ki [1]: 1840 nM
Compound: Cc1nc(-c2cnn(C(C)c3ccc(OC(F)F)cc3C)c2)cc(=O)[nH]1 (single isomer, unassigned) [Example 89, (R)- or (S)-6-(1-(1-(4-(difluoromethoxy)-2-methylphenyl)ethyl)-1H-pyrazol-4-yl)-2-methylpyrimidin-4(3H)-one]

Ki [1]: 480 nM
Compound: Cc1nc(-c2cnn(C(C)c3ccc(OC(F)F)cc3F)c2)cc(=O)[nH]1 (single isomer, unassigned) [Example 87, (R)- or (S)-6-(1-(1-(4-(difluoromethoxy)-2-fluorophenyl)ethyl)-1H-pyrazol-4-yl)-2-methylpyrimidin-4(3H)-one]

Ki [1]: 1260 nM
Compound: Cc1nc(-c2cnn(C(C)c3ccc(CC(F)(F)F)cc3F)c2)cc(=O)[nH]1 (single isomer, unassigned) [Example 96, (S)- or (R)-6-(1-(1-(2-fluoro-4-(2,2,2-trifluoroethyl)phenyl)ethyl)-1H-pyrazol-4-yl)-2-methylpyrimidin-4(3H)-one]

Ki [1]: 695 nM
Compound: Cc1ccc(C(C)n2cc(-c3cc(=O)[nH]c(C)n3)cn2)c(F)c1 (single isomer, unassigned) [Example 150, (R)- or (S)-6-(1-(1-(2-fluoro-4-methylphenyl)ethyl)-1H-pyrazol-4-yl)-2-methylpyrimidin-4(3H)-one]

The next lines start with the compound.

Compound: COCc1ccc(C(C)n2cc(-c3cc(=O)[nH]c(C)n3)cn2)c(Cl)c1 (single isomer, unassigned) [Example 103, (R)- or (S)-6-(1-(1-(2-chloro-4-(methoxymethyl)phenyl)ethyl)-1H-pyrazol-4-yl)-2-methylpyrimidin-4(3H)-one]
Ki [1]: 106 nM

Compound: COC(=O)c1ccc(C(C)n2ccc(-c3cc(=O)[nH]c(C)n3)n2)cc1 (stereo not drawn) [Example 162, methyl 4-(1-(3-(2-methyl-6-oxo-1,6-dihydropyrimidin-4-yl)-1H-pyrazol-1-yl)ethyl)benzoate]
Ki [2]: 29800 nM

Compound: Cc1nc(-c2cnn(C(C)C3CCOCC3)c2)cc(=O)[nH]1 (stereo not drawn) [Example 68, 2-methyl-6-(1-(1-(tetrahydro-2H-pyran-4-yl)ethyl)-1H-pyrazol-4-yl)pyrimidin-4(3H)-one]
Ki [1]: 30100 nM
Ki [2]: 40100 nM

Compound: Cc1ccc(C(C)n2ccc(-c3cc(=O)[nH]c(C)n3)n2)cc1 (stereo not drawn) [Example 157, 2-methyl-6-(1-(1-(p-tolyl)ethyl)-1H-pyrazol-3-yl)pyrimidin-4(3H)-one]
Ki [2]: 48700 nM

Compound: Cc1nc(-c2ccn(C(C)c3ccc(OC(F)(F)F)cc3)n2)cc(=O)[nH]1 (stereo not drawn) [Example 75, 2-methyl-6-(1-(1-(4-(trifluoromethoxy)phenyl)ethyl)-1H-pyrazol-3-yl)pyrimidin-4(3H)-one]
Ki [2]: 3250 nM

Compound: CCc1nc(-c2cnn(C(C)c3ccc(C(F)(F)F)cc3F)c2)cc(=O)[nH]1 (single isomer, unassigned) [Example 86, (S)- or (R)-2-ethyl-6-(1-(1-(2-fluoro-4-(trifluoromethyl)phenyl)ethyl)-1H-pyrazol-4-yl)pyrimidin-4(3H)-one]
Ki [1]: 146 nM

Compound: Cc1nc(-c2ccn(C(C)c3cccc(C(F)(F)F)c3)n2)cc(=O)[nH]1 (stereo not drawn) [Example 159, 2-methyl-6-(1-(1-(3-(trifluoromethyl)phenyl)ethyl)-1H-pyrazol-3-yl)pyrimidin-4(3H)-one]
Ki [2]: 25700 nM

Compound: Cc1nc(-c2ccn(C(C)c3ccc(F)cc3)n2)cc(=O)[nH]1 (stereo not drawn) [Example 161, 6-(1-(1-(4-fluorophenyl)ethyl)-1H-pyrazol-3-yl)-2-methylpyrimidin-4(3H)-one]
Ki [2]: 13900 nM

Compound: Cc1nc(-c2cnn(C(C)c3ccc(C(F)(F)F)cc3C(F)(F)F)c2)cc(=O)[nH]1 (single isomer, unassigned) [Example 145, (S)- or (R)-6-(1-(1-(2,4-bis(trifluoromethyl)phenyl)ethyl)-1H-pyrazol-4-yl)-2-methylpyrimidin-4(3H)-one]
Ki [1]: 6810 nM

Compound: Cc1nc(-c2ccnn2C(C)c2ccc(OC(F)(F)F)cc2)cc(=O)[nH]1 (stereo not drawn) [Example 76, 2-methyl-6-(1-(1-(4-(trifluoromethoxy)phenyl)ethyl)-1H-pyrazol-5-yl)pyrimidin-4(3H)-one]
Ki [2]: 15900 nM

Compound: CCc1ccc(C(C)n2cc(-c3cc(=O)[nH]c(C)n3)cn2)c(Cl)c1 (single isomer, unassigned) [Example 100, (S)- or (R)-6-(1-(1-(2-chloro-4-ethylphenyl)ethyl)-1H-pyrazol-4-yl)-2-methylpyrimidin-4(3H)-one]
Ki [1]: 384 nM
